The values below come from ChEMBL document CHEMBL4825699, “Metabolic and conformational stabilization of a VEGF-mimetic beta-hairpin peptide by click-chemistry” (Eur J Med Chem, 2021).

Calls of active or inactive are those of the source. No cut-off for these calls is given here.

For series [1], the system named is HUVEC. The experiment in a line: Binding affinity to VEGFR in human HUVEC assessed as induction of cell proliferation measured after 24 to 48 hrs by CyQuant NF Cell Proliferation assay. The settings on record: dose 25-50 nM, time 24-48 hrs.
In series [2] the test system is HUVEC. The experiment in a line: Cytotoxicity against human HUVEC assessed as reduction in cell viability at 50 nM measured after 48 hrs by CyQuant NF Cell Proliferation assay. The class given is cell-based. The note with it: 0.05 µM.
The test system of series [3] is HUVEC. The experiment in a line: Pro-angiogenic activity in human HUVEC assessed as organization into capillary network formation by measuring increase in branch points number counting at 50 nM measured after 6 hrs by inverted microscopy relative to Ac-HPLW-NH2. The class given is functional.
In series [4] the test system is HUVEC. Put plainly: Binding affinity to VEGFR in human HUVEC assessed as induction of cell proliferation at 25 to 50 nM measured after 48 hrs by CyQuant NF Cell Proliferation assay relative to HPLW. The settings on record: dose 25-50 nM.
Series [5] has as its system HUVEC. The experiment in a line: Binding affinity to VEGFR in human HUVEC assessed as induction of cell proliferation at 25 to 50 nM measured after 48 hrs by CyQuant NF Cell Proliferation assay relative to Ac-HPLW-NH2. The note with it: dose 25-50 nM.
The test system of series [6] is HUVEC. The experiment in a line: Binding affinity to VEGFR in human HUVEC assessed as induction of cell proliferation at 50 nM measured after 48 hrs in presence of 250 nM VEGFR1D2 by CyQuant NF Cell Proliferation assay.
The subject of series [7] is HUVEC. The experiment in a line: Pro-angiogenic activity in human HUVEC assessed as organization into capillary network formation by measuring increase in branch points number counting at 50 nM measured after 6 hrs by inverted microscopy relative to HPLW. It is filed as functional.
A short description of series [8]: Metabolic stability of the compound in 50% human serum incubated for 120 mins by RP-HPLC analysis. The class given is ADME, cell-free. The note with it: read-out: Stabilty.
The subject of series [9] is HUVEC. The experiment in a line: Binding affinity to VEGFR in human HUVEC assessed as induction of cell proliferation at 25 to 50 nM measured after 48 hrs by CyQuant NF Cell Proliferation assay relative to control. The settings on record: dose 25-50 nM.
The nature of series [10]: Metabolic stability of the compound in 50% human serum assessed as drug degradation incubated for 120 mins by RP-HPLC analysis. It is filed as ADME, cell-free. The settings on record: read-out: Drug degradation.
Series [11] is described as follows: Metabolic stability of the compound in 50% human serum assessed as half life by RP-HPLC analysis. The class given is ADME, cell-free.

As to `CC[C@H](C)[C@@H]1NC(=O)[C@@H](NC(=O)[C@H](CC(C)C)NC(=O)[C@H](CC(C)C)NC(=O)[C@H](CCC(N)=O)NC(=O)[C@H](CCCCN)NC(C)=O)CCCc2cn(nn2)CCC[C@@H](C(=O)N[C@@H](Cc2ccc(O)cc2)C(=O)N[C@@H](Cc2c[nH]c3ccccc23)C(=O)N[C@H](C(=O)N[C@@H](CO)C(N)=O)[C@@H](C)O)NC(=O)[C@@H]2CCCN2C(=O)[C@H](CCCNC(=N)N)NC(=O)[C@H](CC(=O)O)NC(=O)CNC(=O)[C@H](CO)NC(=O)[C@H](CCCNC(=N)N)NC1=O`, the Activity entry with HUVEC [1] is “Toxic”; in the series with HUVEC [2], “Non-Toxic”; with HUVEC [3] it was 28%; in the series on HUVEC [4], 37%; with HUVEC [5] it was 30%; with HUVEC [7] it was 13%. In addition, the Activity in the series with HUVEC [9] came out at 92%. In addition, the outcome in the series with HUVEC [6] was inactive. For the same compound, the remaining at 2 h in [8] was 100%.

As for Ac-KQLLWIRSGDRPWYYTS-NH2, the Activity entry was “Dose-Dependent Effect” in the series on HUVEC [1] and “Non-Toxic” with HUVEC [2]. Besides, in the series on HUVEC [6], the outcome was inactive. Further, the metabolised at 2 h in series [10] came out at 100%. Further, the half-life in series [11] stood at 25 min.

With H-KQLLWIRSGDRPWYYTS-OH, the Activity entry in the series on HUVEC [1] is “Dose-Dependent Effect”; in the series with HUVEC [2] it was “Non-Toxic”. Also, in the series on HUVEC [6], the outcome was inactive. In series [10], the metabolised at 2 h was 100%. In addition, the half-life in [11] came out at 25 min.
